Laboratory results reported in ChEMBL document CHEMBL1201862, “PubChem BioAssay data set” (2004).
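Assay format: 96-well plates, 48-hour exposure. Here, GI50 denotes the concentration required for 50% inhibition of growth.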 Active and inactive are the calls of the source. No stated cut-off is given here; in the data, active = GI50 up to about 1.1 µM and inactive = higher.

Tests used:
Assay in all cases: NCI-60 cell line screen, 48 h
SF-539 = tested on: SF-539
HCT-15 = tested on: HCT-15
COLO 205 = tested on: COLO 205
OVCAR-5 = tested on: OVCAR-5
CCRF-CEM = tested on: CCRF-CEM
MOLT-4 = tested on: MOLT-4
SNB-19 = tested on: SNB-19
SK-OV-3 = tested on: SK-OV-3
UO-31 = tested on: UO-31
HT-29 = tested on: HT-29
SK-MEL-2 = tested on: SK-MEL-2
HCT-116 = tested on: HCT-116
SW-620 = tested on: SW-620
IGROV-1 = tested on: IGROV-1
SN12C = tested on: SN12C
SF-268 = tested on: SF-268
NCI-H460 = tested on: NCI-H460
SK-MEL-28 = tested on: SK-MEL-28
M19-MEL = tested on: M19-MEL
DMS-273 = tested on: DMS-273

Compound	GI50 (SF-539)	GI50 (HCT-15) [µM]	GI50 (COLO 205)	GI50 (OVCAR-5)	GI50 (CCRF-CEM)	GI50 (MOLT-4)	GI50 (SNB-19)	GI50 (SK-OV-3)	GI50 (UO-31)	GI50 (HT-29)	GI50 (SK-MEL-2)	GI50 (HCT-116)	GI50 (SW-620)	GI50 (IGROV-1)	GI50 (SN12C)	GI50 (SF-268)	GI50 (NCI-H460)	GI50 (SK-MEL-28)	GI50 (M19-MEL)	GI50 (DMS-273)
CC(=O)Nc1ccc2[nH]c(C(=O)N3CC(CCl)c4c3cc(N)c3ccccc43)cc2c1 (stereo unspecified)	0.0129 µM (active)	0.0267	0.0139 µM (active)	< 0.0179 µM (active)	< 0.01 µM (active)	< 0.0115 µM (active)	< 0.0217 µM (active)	0.0174 µM (active)	0.014 µM (active)	< 0.0127 µM (active)	< 0.0143 µM (active)	0.0137 µM (active)	0.0118 µM (active)	0.0143 µM (active)	0.0118 µM (active)	< 0.01 µM (active)	< 0.01 µM (active)	0.0161 µM (active)		
CCCCCCCCCCCCCCCC(=O)OC1C(O)C(CO)OC(OC)C1NC(=O)N(CCCl)N=O (stereo unspecified)	1.08 µM (active)	23.7	18.7 µM (inactive)	16.5 µM (inactive)		3.08 µM (inactive)	10.4 µM (inactive)		15.2 µM (inactive)	12.8 µM (inactive)	23.9 µM (inactive)	14.3 µM (inactive)	10.9 µM (inactive)	17.4 µM (inactive)		2.64 µM (inactive)	3.78 µM (inactive)	14.2 µM (inactive)	15.9 µM (inactive)	13.1 µM (inactive)
NS(=O)(=O)C1CCCCC1C(=O)NNC(=O)C(=O)Nc1nnc(S)[nH]1 (stereo unspecified)	> 100 µM (inactive)	> 100	> 100 µM (inactive)	> 100 µM (inactive)	> 100 µM (inactive)	> 100 µM (inactive)	> 100 µM (inactive)	> 100 µM (inactive)	> 100 µM (inactive)	> 100 µM (inactive)	> 100 µM (inactive)	> 100 µM (inactive)	> 100 µM (inactive)	> 100 µM (inactive)	> 100 µM (inactive)	> 100 µM (inactive)	> 100 µM (inactive)	> 100 µM (inactive)	> 100 µM (inactive)	> 100 µM (inactive)
COc1ccc(N2CN(C)CSC2=S)cc1	> 100 µM (inactive)	76	> 100 µM (inactive)	71.9 µM (inactive)	13.1 µM (inactive)	76.7 µM (inactive)	> 100 µM (inactive)	27.1 µM (inactive)	> 100 µM (inactive)	> 100 µM (inactive)	> 100 µM (inactive)	71.3 µM (inactive)	43 µM (inactive)	77.6 µM (inactive)	> 100 µM (inactive)	97.9 µM (inactive)	76 µM (inactive)	> 100 µM (inactive)		
CO/N=C1/c2sccc2[C@H](NC(=O)C(F)(F)F)[C@@H]1O	> 100 µM (inactive)	> 100	> 100 µM (inactive)	> 100 µM (inactive)	> 100 µM (inactive)	> 100 µM (inactive)		> 100 µM (inactive)	> 100 µM (inactive)	> 100 µM (inactive)	> 100 µM (inactive)	> 100 µM (inactive)	> 100 µM (inactive)	> 100 µM (inactive)	> 100 µM (inactive)	> 100 µM (inactive)	> 100 µM (inactive)	> 100 µM (inactive)		
COc1ccc(-c2c3ccccc3c(-c3ccc(OCCCCCBr)cc3)c3ccccc23)cc1	> 100 µM (inactive)	> 100	> 100 µM (inactive)	> 100 µM (inactive)	> 100 µM (inactive)	> 100 µM (inactive)	> 100 µM (inactive)	> 100 µM (inactive)	> 100 µM (inactive)	> 100 µM (inactive)	> 100 µM (inactive)	> 100 µM (inactive)	> 100 µM (inactive)	> 100 µM (inactive)	> 100 µM (inactive)	> 100 µM (inactive)	> 100 µM (inactive)	> 100 µM (inactive)	> 100 µM (inactive)	> 100 µM (inactive)
O=C(N/N=C\c1cccc2ccccc12)Nc1ccccc1		> 100	> 100 µM (inactive)	> 100 µM (inactive)	> 100 µM (inactive)	> 100 µM (inactive)	> 100 µM (inactive)	> 100 µM (inactive)	> 100 µM (inactive)	> 100 µM (inactive)	> 100 µM (inactive)	> 100 µM (inactive)	> 100 µM (inactive)	> 100 µM (inactive)	> 100 µM (inactive)		> 100 µM (inactive)	> 100 µM (inactive)		
O=C1CCC(c2ccc(Cl)cc2)=NN1c1nsc2ccccc12	48.4 µM (inactive)	> 10	36.5 µM (inactive)	51.2 µM (inactive)	17.7 µM (inactive)	19.7 µM (inactive)	34.4 µM (inactive)		18 µM (inactive)	30.1 µM (inactive)	19.1 µM (inactive)	19.7 µM (inactive)	58.1 µM (inactive)	39.4 µM (inactive)	25.6 µM (inactive)	38.9 µM (inactive)	29.6 µM (inactive)	31.6 µM (inactive)	37.2 µM (inactive)	25.6 µM (inactive)
COC(=O)Cc1c(-c2c(CC(=O)OC)c3ccccc3n2C2OC(COC(C)=O)C(OC(C)=O)C(OC(C)=O)C2OC(C)=O)[nH]c2ccccc12 (stereo unspecified)		> 100	> 100 µM (inactive)	> 100 µM (inactive)	> 100 µM (inactive)	> 100 µM (inactive)	> 100 µM (inactive)	> 100 µM (inactive)	> 100 µM (inactive)	> 100 µM (inactive)	> 100 µM (inactive)	> 100 µM (inactive)	> 100 µM (inactive)	74.6 µM (inactive)	> 100 µM (inactive)	> 100 µM (inactive)	> 100 µM (inactive)	> 100 µM (inactive)		
CCCCCCc1ccc(O)cc1O [HEXYLRESORCINOL]	> 80.7 µM (inactive)	59.8	> 100 µM (inactive)	> 65.6 µM (inactive)	32 µM (inactive)	22.9 µM (inactive)	43.7 µM (inactive)	> 100 µM (inactive)	24.4 µM (inactive)	> 100 µM (inactive)	26.1 µM (inactive)	53.5 µM (inactive)	> 100 µM (inactive)	45.5 µM (inactive)	66.4 µM (inactive)	87.3 µM (inactive)	58.3 µM (inactive)	> 71.9 µM (inactive)	42.8 µM (inactive)	> 72.6 µM (inactive)
O=C1CNC(=O)N1 [HYDANTOIN]	> 1120 µM (inactive)	> 1120	> 1120 µM (inactive)	> 1120 µM (inactive)	681 µM (inactive)	> 1120 µM (inactive)	> 1120 µM (inactive)	> 1120 µM (inactive)	> 1120 µM (inactive)	> 1120 µM (inactive)	> 1120 µM (inactive)	> 1120 µM (inactive)	> 1120 µM (inactive)	> 1120 µM (inactive)	> 1120 µM (inactive)	> 1120 µM (inactive)	> 1120 µM (inactive)	> 1120 µM (inactive)	> 1120 µM (inactive)	> 1120 µM (inactive)
CC(=O)CC(=O)CCC(=O)O [SUCCINYLACETONE]	> 100 µM (inactive)	> 100	> 100 µM (inactive)	> 100 µM (inactive)		57.3 µM (inactive)	> 100 µM (inactive)	> 100 µM (inactive)	> 100 µM (inactive)	> 100 µM (inactive)	> 100 µM (inactive)	> 100 µM (inactive)	> 100 µM (inactive)	> 100 µM (inactive)	> 100 µM (inactive)	> 100 µM (inactive)	> 100 µM (inactive)	> 100 µM (inactive)	> 100 µM (inactive)	> 100 µM (inactive)
